Source: patent US9512139B2, “Conformationally constrained, fully synthetic macrocyclic compounds” (POLYPHOR AG, priority 2009, dated 2016)

Columns and labels:
in vitro [1] = format: in vitro ADME, human; conditions: human, plasma, 10 µM; for Plasma Stability 240 min hum [% remain.]: 4 h
[2] = Plasma stability assay, rat plasma (values in parentheses); format: in vitro ADME; conditions: value in parentheses
[3] = Metabolic stability assay, rat microsomes (values in parentheses); format: in vitro ADME; conditions: value in parentheses
[4] = Metabolic stability assay, human microsomes; format: in vitro ADME; conditions: human, microsomes; for Metabolic Stability T½ [min] hum / Metabolic Stability 60 min hum [% remain.]: both, 10 µM; for Metabolic Stability 60 min hum [% remain.]: 1 h; for half-life at 10 µM: both sexes
[5] = Metabolic stability assay, CD-1 mouse microsomes; format: in vitro ADME; conditions: CD-1, mouse, microsomes; for Metabolic Stability T½ [min] mouse / Metabolic Stability 60 min mouse [% remain.]: both, 10 µM; for Metabolic Stability 60 min mouse [% remain.]: 1 h; for half-life at 10 µM: both sexes
in vitro [6] = format: in vitro ADME, mouse; conditions: both, CD-1, mouse, plasma, 10 µM; for Plasma Stability 240 min mouse [% remain.]: 4 h
Motilin Receptor = target: T1, Motilin Receptor (Homo sapiens, UniProt O43193); experiment: Ca2+ assay (FLIPR) for the GPCR motilin receptor, agonist and antagonist mode; format: cell-based; conditions: antagonist mode
T1 construct: host or cells: Ca2+ optimized hematopoietic cell lines (rat)
Procedure: Ca^2+ Assays for the GPCRs Motilin Receptor, Prostaglandin F (FP) Receptor, 5-hydroxytryptamine 2B (5-HT2B) Receptor, and Purinoreceptor P2Y1
Assays were performed using on a FLIPR^TETRA fluorometric imaging plate reader (Molecular Devices) with ScreenWorks Version 2 (Molecular Devices) as device operating and data analysis software.
Dose dependent agonist and antagonist activities were determined. Percentage activation and percentage inhibition values were determined.
Percentage activation was determined upon initial addition of the sample compounds followed by 10 minutes incubation at 25° C. Following compound incubation, reference agonists were added at EC80 to determine percentage inhibition.
Reference agonists were purchased from reputable commercial vendors and prepared according to each ligand's specifications. All handling of ligands were done to ensure proper control throughout the experiments.
Example compounds were weighed on a Microbalance (Mettler MX5) and dissolved in 100% DMSO to a final concentration of 2.5 mM and subsequently diluted into the assay buffer.
The Assay buffer was a supplemented HBSS (Hank's Balanced Salt Solution). HBSS was supplemented with 20 mM HEPES (4-(2-hydroxyethyl)-piperazin-1-ethansulfonic acid) and 2.5 mM Probenecid (Sigma P8761).
GPCR assays were performed using Ca^2+ optimized hematopoietic cell lines (rat) with cultures never exceeding 90% confluency. […] After seeding, the assay plates were incubated for forty-five (45) minutes at room temperature. After room temperature incubation, the assay plates were incubated at 37° C. 5% CO2 for 24 hours prior to assaying.
All GPCR assays were performed using Fluo-8 Ca^2+ dye. Ca^2+ dye was prepared at 1× dye concentration in GPCR assay buffer. After 24 hours of incubation, cells were washed with GPCR assay buffer, and then Ca^2+-dye (100 μL/well) was added.
The plates were incubated for 90 minutes at 30° C. 5% CO2 prior to FLIPR assay.
Compound plates were prepared to add 50 μL/well during the agonist assay mode. During the FLIPR assay, 50 μL/well from the compound plate was diluted 3-fold into the existing 100 μL/well from the dye loading step. Therefore all compounds were prepared as 3× the final concentration desired in the assay.
After completion of the first single addition assay run, assay plate was removed from the FLIPR Tetra and placed at 25° C. for seven (7) minutes before antagonist assay.
Using the EC80 values determined during the agonist assay, all pre-incubated sample compound and reference antagonist (if applicable) wells were stimulated at the EC80 of the reference agonist. As reference ligands for the first three assays their obvious natural ligands motilin, prostaglandin F2α, and serotonin (5-HT, 5-Hydroxytryptamine) were used; and for the P2Y1 assay 2MeSATP (2-methyl-thio-adeno-sine 5′-triphosphate, i.e. (2R,3S,4R)-5-(6-amino-2-methylsulfanyl-purin-9-yl)-3,4-dihydroxy-tetrahydrofuran-2-yl]methyl (hydroxy-phosphonooxy-phosphoryl)hydrogen phosphate) was applied.
After the addition of the reference agonist fluorescence was monitored for 180 sec using FLIPR Tetra.
Data Analysis and Results:
From the FLIPR data, with negative control correction enabled, the maximum statistic for each well was exported and percentage activation relative to Emax control was calculated.
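For Plasma Stability 240 min mouse [% remain.] in this document: sodium citrate stabilized mouse plasma, parent compound quantified by HPLC/MS/MS relative to its peak area at time zero, run in triplicate.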
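For Plasma Stability T½ [min] mouse in this document: sodium citrate stabilized mouse plasma, parent compound quantified by HPLC/MS/MS relative to its peak area at time zero, run in triplicate.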

T1 sequence (O43193 whole entry, species assumed): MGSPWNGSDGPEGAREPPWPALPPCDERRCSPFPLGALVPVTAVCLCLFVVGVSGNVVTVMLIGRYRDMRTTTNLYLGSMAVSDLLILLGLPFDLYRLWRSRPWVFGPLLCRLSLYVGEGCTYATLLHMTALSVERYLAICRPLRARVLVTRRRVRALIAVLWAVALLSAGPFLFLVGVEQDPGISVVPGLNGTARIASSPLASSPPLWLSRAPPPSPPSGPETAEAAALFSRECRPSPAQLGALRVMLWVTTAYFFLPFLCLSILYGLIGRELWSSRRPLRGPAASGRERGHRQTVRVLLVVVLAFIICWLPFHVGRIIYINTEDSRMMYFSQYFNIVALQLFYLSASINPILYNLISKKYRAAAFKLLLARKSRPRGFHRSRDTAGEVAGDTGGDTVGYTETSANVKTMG

Row | Compound | Plasma Stability T½ [min] hum (in vitro [1]) [min] | Plasma Stability 240 min hum [% remain.] (in vitro [1]) | Plasma Stability 240 min (rat) [% remain.] [2] | Plasma Stability T½ [min] (rat) [2] | Metabolic Stability 60 min (rat) [% remain.] [3] [% remain.] | Metabolic Stability T½ [min] (rat) [3] | Metabolic Stability T½ [min] hum [4] [min] | Metabolic Stability 60 min hum [% remain.] [4] [% remain.] | Metabolic Stability T½ [min] mouse [5] [min] | Metabolic Stability 60 min mouse [% remain.] [5] [% remain.] | half-life at 10 µM ([2]; read-out: Plasma Stability T½ [min] (rat)) | half-life at 10 µM ([3]; read-out: Metabolic Stability T½ [min] (rat)) | half-life at 10 µM [4] [h] | half-life at 10 µM [5] [h] | Plasma Stability T½ [min] mouse (in vitro [6]) [min] | Plasma Stability 240 min mouse [% remain.] (in vitro [6]) | IC50 (Motilin Receptor) [µM] | inhibition at 10 µM (Motilin Receptor) [%]
1 | COCCNC(=O)[C@@H]1COCC(=O)N2C[C@@H](NCC(C)C)C[C@H]2COc2cccc(c2)C(=O)N1C [Ex. 376, (4S,6S,13S)-6-(isobutylamino)-N-(2-methoxyethyl)-14-methyl-9,15-dioxo-2,11-dioxa-8,14-diazatricyclo[14.3.1.0^4,8]icosa-1(20),16,18-triene-13-carboxamide] | > 240 | 90 | (89) % remain. | (240) min | 78 | 60 (60) min | > 60 | 79 | > 60 | 91 |  |  |  |  |  |  |  | 
2 | CN(C)CCNC(=O)[C@@H]1COCC(=O)N2C[C@@H](NC(=O)Cc3ccc4ccccc4c3)C[C@H]2COc2cccc(c2)C(=O)N1C [Ex. 374, (4S,6S,13S)-N-[2-(dimethylamino)ethyl]-14-methyl-6-{[2-(2-naphthyl)acetyl]amino}-9,15-dioxo-2,11-dioxa-8,14-diazatricyclo[14.3.1.0^4,8]icosa-1(20),16,18-triene-13-carboxamide] | > 240 | 57 | (82) % remain. | (240) min | 90 | 60 (60) min | > 60 | 61 | > 60 | 94 |  |  |  |  |  |  |  | 
3 | CC(C)CN[C@H]1C[C@H]2COc3cccc(c3)C(=O)N(C)[C@H](C(=O)NCc3ccc4ccccc4c3)COCC(=O)N2C1 [Ex. 373, (4S,6S,13S)-6-(isobutylamino)-14-methyl-N-(2-naphthylmethyl)-9,15-dioxo-2,11-dioxa-8,14-diazatricyclo[14.3.1.0^4,8]icosa-1(20),16,18-triene-13-carboxamide] | > 240 | 55 | (100) % remain. | (240) min | 0 |  |  | 12 |  | 39 |  | 7 | 0.2 | 0.6 |  |  |  | 
4 | CN1C(=O)c2cccc(c2)OC[C@@H]2C[C@H](N)CN2C(=O)COC[C@H]1C(=O)NCc1ccc2ccccc2c1 [Ex. 368, (4S,6S,13S)-6-amino-14-methyl-N-(2-naphthylmethyl)-9,15-dioxo-2,11-dioxa-8,14-diazatricyclo[14.3.1.0^4,8]icosa-1(20),16,18-triene-13-carboxamide] | > 240 | 72 | (100) % remain. | (240) min | 98 | 60 (60) min | > 60 | 83 | > 60 | 82 |  |  |  |  |  |  |  | 
5 | CN1CC(=O)N2CC(NC(=O)Cc3cccc4ccccc34)CC2COc2ccc(F)cc2C(=O)N(C)C(C(=O)NCCNc2ccccn2)CCC1=O [Ex. 485, [2S,11S,19aS)-15-fluoro-7,12-dimethyl-2-{[2-(1-naphthyl)acetyl]amino}-5,8,13-trioxo-N-[2-(2-pyridinylamino)ethyl]-2,3,6,7,8,9,10,11,12,13,19,19a-dodecahydro-1H,5H-pyrrolo[2,1-c] [1,4,7,12]benzoxatriaza-cyclopentadecine-11-carboxamide] | > 240 | 100 |  |  |  |  |  | 8 |  | 11 |  |  | 0.233 | 0.283 | > 240 | 99 | 0.28 | 93
6 | CN(C)CCNC(=O)[C@@H]1CCC(=O)N(C)CC(=O)N2C[C@@H](NC(=O)Nc3cccc4ccccc34)C[C@H]2COc2ccc(F)cc2C(=O)N1C [Ex. 482, (2S,11S,19aS)-N-[2-(dimethylamino)ethyl]-15-fluoro-7,12-dimethyl-2-{[(1-naphthylamino)carbonyl]amino}-5,8,13-trioxo-2,3,6,7,8,9,10, 11,12,13,19,19a-dodecahydro-1H,5H-pyrrolo [2,1-c] [1,4,7,12]benzoxatriazacyclopentadecine-11-carboxamide] | > 240 | 100 |  |  |  |  |  | 11 | > 60 | 84 |  |  | 0.367 |  | > 240 | 100 | 1.1 | 62

The next lines start with results.

Row | Plasma Stability T½ [min] hum (in vitro [1]) [min] | Plasma Stability 240 min hum [% remain.] (in vitro [1]) | Plasma Stability 240 min (rat) [% remain.] [2] | Plasma Stability T½ [min] (rat) [2] | Metabolic Stability 60 min (rat) [% remain.] [3] [% remain.] | Metabolic Stability T½ [min] (rat) [3] | Metabolic Stability T½ [min] hum [4] [min] | Metabolic Stability 60 min hum [% remain.] [4] [% remain.] | Metabolic Stability T½ [min] mouse [5] [min] | Metabolic Stability 60 min mouse [% remain.] [5] [% remain.] | half-life at 10 µM ([2]; read-out: Plasma Stability T½ [min] (rat)) | half-life at 10 µM ([3]; read-out: Metabolic Stability T½ [min] (rat)) | half-life at 10 µM [4] [h] | half-life at 10 µM [5] [h] | Compound | Plasma Stability T½ [min] mouse (in vitro [6]) [min] | Plasma Stability 240 min mouse [% remain.] (in vitro [6]) | IC50 (Motilin Receptor) [µM] | inhibition at 10 µM (Motilin Receptor) [%]
7 | > 240 | 85 | (79) % remain. | (240) min | 100 | 60 (60) min | > 60 | 100 | > 60 | 80 |  |  |  |  | COCCNC(=O)[C@@H]1COCC(=O)N2C[C@@H](N)C[C@H]2COc2cccc(c2)C(=O)N1C [Ex. 369, (4S,6S,13S)-6-amino-N-(2-methoxyethyl)-14-methyl-9,15-dioxo-2,11-dioxa-8,14-diazatricyclo[14.3.1.0^4,8]icosa-1(20),16,18-triene-13-carboxamide] |  |  |  | 
8 | > 240 | 70 | (77) % remain. |  |  |  | > 60 | 98 | > 60 | 100 | 210 |  |  |  | CN1CCN([C@H]2CCCN(C)C(=O)c3cccc(c3)OC[C@@H]3C[C@H](O)CN3C2=O)CC1 [Ex. 581, (4S,6S,10S)-6-hydroxy-14-methyl-10-(4-methylpiperazino)-2-oxa-8,14-diazatricyclo[14.3.1.0^4,8]icosa-1(20),16,18-triene-9,15-dione] |  |  |  | 
9 | > 240 | 70 | (79) % remain. | (240) min |  |  | > 60 | 100 |  |  |  |  |  |  | CN1CCC[C@H](N2CCNCC2)C(=O)N2C[C@@H](O)C[C@H]2COc2cccc(c2)C1=O [Ex. 580, (4S,6S,10S)-6-hydroxy-14-methyl-10-piperazino-2-oxa-8,14-diazatricyclo[14.3.1.0^4,8]icosa-1(20),16,18-triene-9,15-dione] |  |  |  | 
